{"source": "patent US20240383922A1", "about": "“KRAS Modulating Compounds” (Gilead Sciences, Inc., priority 2023, published 2024)", "key": {"[1]": {"target": "GDP-loaded KRAS-G12V (Homo sapiens (Human), UniProt P01116, G12V)", "sequence (P01116-2 other isoform, or with tags, fused parts or gaps G12V)": "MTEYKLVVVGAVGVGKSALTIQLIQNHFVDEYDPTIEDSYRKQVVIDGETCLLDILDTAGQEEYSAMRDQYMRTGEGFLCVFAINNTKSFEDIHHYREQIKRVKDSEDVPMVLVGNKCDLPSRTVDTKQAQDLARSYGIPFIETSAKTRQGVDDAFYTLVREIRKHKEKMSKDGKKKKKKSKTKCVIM", "assay": "KRAS (GDP) biochemical TR-FRET probe displacement assay, KRAS-G12V", "type": "binding", "conditions": "2 hours", "experimental": "(§1) KRAS (GDP) Biochemical Assays:\n(§2) Compounds were serially diluted (1:3) in DMSO. The LabCyte ECHO Acoustic dispenser was used to pre-spot the assay plates (384-well Non-Binding Surface plates, Corning, Catalog #3824) with 50 nL of compound. 5 μL of 2× enzyme concentration was added to the pre-spotted plates and incubated for 30 minutes before adding 5 μL of 2× concentration of Eu-streptavidin and Cy-5 labelled probe (10 μL final reaction volume). The plates were incubated at room temperature for 2 hours before measuring TR-FRET ratio (665 nm/615 nm) on the Envision multimode plate reader. The ratios were normalized to a positive (saturating concentration of known inhibitor) and negative (DMSO) control and plotted against the log of compound concentration."}, "[2]": {"tested_on": "cellular pERK in Kuramochi (WT KRAS) cell-line", "assay": "Cell based pERK assay (HTRF), Kuramochi", "conditions": "Kuramochi (WT KRAS) cells, 2 hours incubation", "how_it_was_run": "(§3)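 Cells were seeded overnight (5000 AsPC-1; 7500 MIA-PaCa-2, NCI-H441 or Kuramochi) and then exposed to 1:3 compound dilutions for 2 h at 37 °C. Lysates were read by HTRF phospho-ERK1/2 (665/615 nm ratio) after overnight incubation at room temperature. IC50 came from sigmoidal fits normalized to DMSO and a saturating reference inhibitor.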"}, "[3]": {"target": "GDP-loaded wild-type KRAS (WT) (Homo sapiens (Human), UniProt P01116)", "sequence (P01116-2 other isoform, or with tags, fused parts or gaps)": "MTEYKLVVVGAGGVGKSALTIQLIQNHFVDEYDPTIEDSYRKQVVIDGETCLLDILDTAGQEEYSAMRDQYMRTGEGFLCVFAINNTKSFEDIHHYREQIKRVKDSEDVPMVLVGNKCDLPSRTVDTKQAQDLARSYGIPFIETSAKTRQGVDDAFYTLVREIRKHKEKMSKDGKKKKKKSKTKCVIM", "assay": "KRAS (GDP) biochemical TR-FRET probe displacement assay, WT KRAS", "type": "binding", "conditions": "2 hours", "experimental": "as §1, §2"}, "[4]": {"tested_on": "cellular pERK in NCI-H441 (KRAS-G12V) cell-line", "assay": "Cell based pERK assay (HTRF), NCI-H441", "conditions": "Homo sapiens; NCI-H441 (KRAS-G12V) cells, 2 hours incubation", "how_it_was_run": "as §3"}, "[5]": {"target": "GDP-loaded KRAS-G12D (Homo sapiens (Human), UniProt P01116, G12D)", "sequence (P01116-2 other isoform, or with tags, fused parts or gaps G12D)": "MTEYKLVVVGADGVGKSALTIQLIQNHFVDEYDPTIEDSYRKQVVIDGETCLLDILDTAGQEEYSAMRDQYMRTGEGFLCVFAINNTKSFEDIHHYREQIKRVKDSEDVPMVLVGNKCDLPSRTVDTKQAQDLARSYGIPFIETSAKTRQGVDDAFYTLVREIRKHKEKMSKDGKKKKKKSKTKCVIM", "assay": "KRAS (GDP) biochemical TR-FRET probe displacement assay, KRAS-G12D", "type": "binding", "conditions": "2 hours", "experimental": "as §1, §2"}, "[6]": {"target": "GDP-loaded KRAS-G12C (Homo sapiens (Human), UniProt P01116, G12C)", "sequence (P01116-2 other isoform, or with tags, fused parts or gaps G12C)": "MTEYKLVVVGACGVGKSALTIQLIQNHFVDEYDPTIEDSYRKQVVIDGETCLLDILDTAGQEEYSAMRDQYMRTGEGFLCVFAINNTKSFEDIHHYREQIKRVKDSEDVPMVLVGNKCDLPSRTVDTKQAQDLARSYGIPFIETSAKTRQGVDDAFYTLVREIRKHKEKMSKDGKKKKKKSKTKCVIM", "assay": "KRAS (GDP) biochemical TR-FRET probe displacement assay, KRAS-G12C", "type": "binding", "conditions": "2 hours", "experimental": "as §1, §2"}, "[7]": {"tested_on": "cellular pERK in ASPC-1 (KRAS G12D) cell-line", "assay": "Cell based pERK assay (HTRF), ASPC-1", "conditions": "Homo sapiens, ASPC1; ASPC-1 (KRAS G12D) cells, 2 hours incubation", "how_it_was_run": "as §3"}, "[8]": {"tested_on": "cellular pERK in MIA-PaCa-2 (KRAS-G12C) cell-line", "assay": "Cell based pERK assay (HTRF), MIA-PaCa-2", "conditions": "Homo sapiens; MIA-PaCa-2 (KRAS-G12C) cells, 2 hours incubation; read-out: MIAPaCa2 pERK EC50", "how_it_was_run": "as §3"}}, "data": [{"smiles": "C#Cc1c(F)ccc2cc(O)cc(-c3nc4c5c(nc(OCC67CCCN6[C@H](COCC(F)(F)F)CC7)nc5c3F)N3CCCOCC3CC4)c12", "note": "(some centres unmarked) [Example 22-8]", "values": [{"measurement": "IC50", "setting": "[1]", "value": 1.37, "unit": "nM"}, {"measurement": "EC50", "setting": "[2]", "value": 2.15, "unit": "nM"}, {"measurement": "IC50", "setting": "[3]", "value": 1.61, "unit": "nM"}, {"measurement": "EC50", "setting": "[4]", "value": 6.08, "unit": "nM"}, {"measurement": "IC50", "setting": "[5]", "value": 0.36, "unit": "nM"}, {"measurement": "IC50", "setting": "[6]", "value": 0.67, "unit": "nM"}, {"measurement": "EC50", "setting": "[7]", "value": 14.6, "unit": "nM"}, {"measurement": "EC50", "setting": "[8]", "value": 5.57, "unit": "nM"}]}]}
